According to US20160024098A1, “HYBRID NECROPTOSIS INHIBITORS” (PRESIDENT AND FELLOWS OF HARVARD COLLEGE, priority 2013, published 2016):

Tested on: FADD-deficient Jurkat cells
Assay: necroptosis assay (TNF-α-induced necroptosis, CellTiter-Glo ATP-based viability)
Assay type: cell-based
Conditions: FADD-deficient Jurkat cells treated with 10 ng/ml human TNFalpha for 24 hr, eleven concentrations
Description: Evaluation of necroptosis inhibitory activity can be performed using a FADD-deficient variant of human Jurkat T cells treated with TNF-α as previously described (Degterev et al., Nat. Chem. Biol. 1:112 (2005) and Jagtap et al., J. Med. Chem. 50: 1886 (2007)). For EC50 value determinations, cells can be treated with 10 ng/mL of human TNF-α in the presence of increasing concentration of test compounds for 24 hours followed by ATP-based viability assessment.
ATP-based viability assessment: Briefly, necroptosis activity can be performed using a FADD-deficient variant of human Jurkat T cells treated with TNF-α. For EC50 value determinations, cells (500,000 cells/mL, 100 μL per well in a 96-well plate) can be treated with 10 ng/mL of human TNF-α in the presence of increasing concentration of test compounds for 24 hours at 37° C. in a humidified incubator with 5% CO2 followed by ATP-based viability assessment. Stock solutions (30 mM) in DMSO can be prepared and then diluted with DMSO to give testing solutions, which were added to each test well. The final DMSO concentration can be 0.5%. Eleven compound test concentrations (0.030-100 μM) can be used, and each concentration can be done in duplicate.
Cell viability assessments can be performed using a commercial luminescent ATP-based assay kit (CellTiter-Glo, Promega, Madison, Wis.) according to the manufacturer's instructions. Briefly, 40 μL of the cell lysis/ATP detection reagent can be added to each well. Plates can be incubated on a rocking platform for 10 minutes at room temperature and luminescence was measured using a Wallac Victor 3 plate-reader (Perkin Elmer, Wellesley, Mass.). Cell viability can be expressed as a ratio of the signal in the well treated with TNF-α and compound to the signal in the well treated with compound alone in order to account for nonspecific toxicity. EC50 values can be calculated using nonlinear regression analysis of sigmoid dose-response (variable slope) curves from plots of log [I] verses viability values.
For necroptosis assay, FADD-deficient Jurkat cells were treated with 10 ng/ml human TNFalpha for 24 hr, followed by CellTiter-Glo viability assay (Promega). EC50 values were calculated using non-linear regression in GraphPad Prism software. Eleven concentrations of each compound were tested to generate dose response curves.

| Compound | EC50 [nM] | EC50, nM in necroptosis assay |
| --- | --- | --- |
| Cc1ccc(C(=O)NCCN2C(=O)NC(Cc3c[nH]c4c(Cl)cccc34)C2=O)cc1C#Cc1cnc2cccnn12 (stereo not drawn) [Compound (1)] | 200 | – |
| Cc1ccc(C(=O)NCCN2C(=O)NC(Cc3c[nH]c4c(Cl)cccc34)C2=O)cc1C#Cc1cnc2ccccn12 (stereo not drawn) [Compound (2)] | 163 | – |
| O=C(NCCN1C(=O)NC(Cc2c[nH]c3c(Cl)cccc23)C1=O)c1cccc(C#Cc2cnc3cccnn23)c1 (stereo not drawn) [Compound (3)] | 364 | – |
| Cc1ccc(C(=O)NCCN2C(=O)NC(Cc3c[nH]c4c(Cl)cccc34)C2=O)cc1CCc1cnc2cccnn12 (stereo not drawn) [Compound (8)] | 1770 | – |
| Cc1ccc(CCCCN2C(=O)NC(Cc3c[nH]c4c(Cl)cccc34)C2=O)cc1C#Cc1cnc2cccnn12 (stereo not drawn) [Compound (29)] | 9.9 | – |
| Cc1ccc(SCCN2C(=O)NC(Cc3c[nH]c4c(Cl)cccc34)C2=O)cc1C#Cc1cnc2cccnn12 (stereo not drawn) [Compound (30)] | 80.4 | – |
| Cc1ccc(CCN2C(=O)NC(Cc3c[nH]c4c(Cl)cccc34)C2=O)cc1C#Cc1cnc2cccnn12 (stereo not drawn) [Compound (31)] | 136 | – |
| Cc1ccc(OCCN2C(=O)NC(Cc3c[nH]c4c(Cl)cccc34)C2=O)cc1C#Cc1cnc2cccnn12 (stereo not drawn) [Compound (32)] | 134 | – |
| Cc1ccc(CCCN2C(=O)NC(Cc3c[nH]c4c(Cl)cccc34)C2=O)cc1C#Cc1cnc2cccnn12 (stereo not drawn) [Compound (33)] | 74.4 | – |
| Cc1ccc(CCCCCN2C(=O)NC(Cc3c[nH]c4c(Cl)cccc34)C2=O)cc1C#Cc1cnc2cccnn12 (stereo not drawn) [Compound (34)] | 185 | – |
| Cc1cc(CCCCN2C(=O)NC(Cc3c[nH]c4c(Cl)cccc34)C2=O)ccc1C#Cc1cnc2cccnn12 (stereo not drawn) [Compound (35)] | 299 | – |
| CNC(=O)c1cc(Oc2ccc(NC(=O)CCN3C(=O)NC(Cc4c[nH]c5c(Cl)cccc45)C3=O)c(F)c2)ccn1 (stereo not drawn) [Compound (36)] | 19300 | – |
| CNC(=O)c1cc(Oc2ccc(CCCN3C(=O)NC(Cc4c[nH]c5c(Cl)cccc45)C3=O)c(F)c2)ccn1 (stereo not drawn) [Compound (37)] | 24500 | – |
| CNC(=O)c1cc(Oc2ccc(NC(=O)N3C(=O)NC(Cc4c[nH]c5c(Cl)cccc45)C3=O)c(F)c2)ccn1 (stereo not drawn) [Compound (38)] | – | INACTIVE |
| O=C1NC(Cc2c[nH]c3c(Cl)cccc23)C(=O)N1CCC#Cc1cnc2cccnn12 (stereo not drawn) [Compound (41)] | 745 | – |
